Results: patent US9550796B2, “Pyrrolopyrrolone derivatives and their use as BET inhibitors” (NOVARTIS AG, priority 2013, dated 2017)

Legend:
BRD4 = BRD4 (Homo sapiens (Human), UniProt O60885); experiment: TR-FRET in-vitro binding assay for BRD4; conditions: 45 nM His-Brd4(44-477), acetyl-histone H4 (AcK 5, 8, 12, 16) peptide
Method in brief: (§1)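 Eight-point compound dilutions, delivered in 90% DMSO, were tested in a 13.55 μL final reaction. Reactions ran 35 minutes at 30° C before TR-FRET measurement.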

BRD2 = BRD2 (Homo sapiens (Human), UniProt P25440); experiment: TR-FRET in-vitro binding assay for BRD2; conditions: 45 nM His-Brd2(60-472), acetyl-histone H4 (AcK 5, 8, 12, 16) peptide
Method in brief: as §1

BRD3 = BRD3 (Homo sapiens (Human), UniProt Q15059); experiment: TR-FRET in-vitro binding assay for BRD3; conditions: 45 nM His-Brd3(20-477), acetyl-histone H4 (AcK 5, 8, 12, 16) peptide
Method in brief: as §1

CREBBP = CREBBP (Homo sapiens (Human), UniProt Q92793); experiment: AlphaScreen in-vitro binding assay for CREBBP; conditions: 324 nM His-CREBBP (1081-1197), acetyl-histone H4 (AcK 5, 8, 12) peptide
Method in brief: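 IC50 values were derived by non-linear regression of percent inhibition across 8 compound concentrations. Protein was His-tagged CREBBP bromodomain (1081-1197), peptide acetyl-histone H4 (AcK 5, 8, 12), in HEPES pH 7.5 buffer. Read-out was AlphaScreen with Ni-chelate acceptor and streptavidin donor beads, 35 min at 30° C then 60 min at RT.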

MV-4-11 = experiment: Cell growth inhibition assay (CellTiter-Glo), MV-4-11; format: cell-based, human; conditions: MV-4-11 cells, 4 days; for GI50: Homo sapiens, MV4-11, 96 h, half-maximal growth inhibition; for MV-4-11 TGI: total growth inhibition
Method in brief: (§2)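 Cells were exposed 4 days at 37 °C, 5% CO2 to 3-fold serial dilutions starting at 10 μM (0.1% DMSO vehicle). Viability was measured as ATP by CellTiter-Glo luminescence, corrected for background and a day-0 plate. IC50 and TGI were derived by four-parameter fitting.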

THP-1 = experiment: Cell growth inhibition assay (CellTiter-Glo), THP-1; format: cell-based, human; conditions: THP-1 cells, 4 days; for GI50: Homo sapiens, 96 h, half-maximal growth inhibition; for THP-1 TGI: total growth inhibition
Method in brief: as §2

K-562 = experiment: Cell growth inhibition assay (CellTiter-Glo), K-562; format: cell-based, human; conditions: K-562 cells, 4 days; for GI50: Homo sapiens, K562, 96 h, half-maximal growth inhibition; for K-562 TGI: total growth inhibition
Method in brief: as §2

Sequence of BRD2 (P25440 60-472): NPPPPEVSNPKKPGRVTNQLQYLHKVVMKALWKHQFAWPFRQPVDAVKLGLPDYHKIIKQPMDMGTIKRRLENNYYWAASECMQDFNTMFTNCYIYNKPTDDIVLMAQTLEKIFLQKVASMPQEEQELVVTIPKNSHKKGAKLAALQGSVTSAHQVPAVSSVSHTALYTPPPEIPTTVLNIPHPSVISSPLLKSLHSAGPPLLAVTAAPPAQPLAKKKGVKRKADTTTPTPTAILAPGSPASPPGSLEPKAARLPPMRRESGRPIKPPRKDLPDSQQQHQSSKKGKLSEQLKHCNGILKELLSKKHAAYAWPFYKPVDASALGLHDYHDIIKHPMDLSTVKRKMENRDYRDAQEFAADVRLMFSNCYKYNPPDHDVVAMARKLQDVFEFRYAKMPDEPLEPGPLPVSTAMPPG
Sequence of BRD3 (Q15059 20-477): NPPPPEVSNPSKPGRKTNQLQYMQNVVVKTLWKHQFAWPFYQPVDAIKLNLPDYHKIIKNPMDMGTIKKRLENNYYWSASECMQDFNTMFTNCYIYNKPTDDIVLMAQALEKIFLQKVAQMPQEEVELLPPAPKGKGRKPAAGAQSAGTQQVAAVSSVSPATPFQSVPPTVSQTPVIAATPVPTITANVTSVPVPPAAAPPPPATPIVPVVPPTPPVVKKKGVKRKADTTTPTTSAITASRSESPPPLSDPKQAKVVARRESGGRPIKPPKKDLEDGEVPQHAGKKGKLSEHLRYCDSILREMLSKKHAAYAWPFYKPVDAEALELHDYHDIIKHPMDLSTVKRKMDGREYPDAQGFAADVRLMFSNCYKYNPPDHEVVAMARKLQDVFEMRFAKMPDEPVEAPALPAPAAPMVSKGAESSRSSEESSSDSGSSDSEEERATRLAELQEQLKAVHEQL
Sequence of CREBBP (Q92793 1081-1197): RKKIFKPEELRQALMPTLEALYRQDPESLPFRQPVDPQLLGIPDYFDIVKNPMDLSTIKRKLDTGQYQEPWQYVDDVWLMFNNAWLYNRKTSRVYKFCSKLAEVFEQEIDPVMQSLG

| Compound | IC50 (BRD4) [nM] | IC50 (BRD2) [nM] | IC50 (BRD3) [nM] | IC50 (CREBBP) [nM] | GI50 (MV-4-11) [nM] | MV-4-11 TGI (MV-4-11) [nM] | GI50 (THP-1) [nM] | THP-1 TGI (THP-1) [nM] | GI50 (K-562) [nM] | K-562 TGI (K-562) [nM] |
| --- | --- | --- | --- | --- | --- | --- | --- | --- | --- | --- |
| Cn1ccc2c1C(c1ccccc1)N(c1cc(Cl)c(=O)n(C)c1)C2=O (centres unmarked) [Example 86, 5-(5-chloro-1-methyl-6-oxo-1,6-dihydropyridin-3-yl)-1-methyl-6-phenyl-5,6-dihydropyrrolo[3,4-b]pyrrol-4(1H)-one] | 437 | 433 | 277 | 18400 | 338 | 642 | 392 | 795.5 | 1100 | >10000 |
| Cc1ccc(C2c3c(ccn3C)C(=O)N2c2cc(Cl)c(=O)n(C)c2)cc1 (centres unmarked) [Example 87, 5-(5-chloro-1-methyl-6-oxo-1,6-dihydropyridin-3-yl)-1-methyl-6-(p-tolyl)-5,6-dihydropyrrolo[3,4-b]pyrrol-4(1H)-one] | 120 | 108 | 76.3 | 4100 | 75.3 | 151 | 83.9 | 255 | 266 | >10000 |
| Cn1ccc2c1C(c1ccc(F)cc1)N(c1cc(Cl)c(=O)n(C)c1)C2=O (centres unmarked) [Example 88, 5-(5-chloro-1-methyl-6-oxo-1,6-dihydropyridin-3-yl)-6-(4-fluorophenyl)-1-methyl-5,6-dihydropyrrolo[3,4-b]pyrrol-4(1H)-one] | 330 | 287 | 190 | 7600 | 210 | 359 | 321 | 683 | 715 | >10000 |
| Cn1ccc2c1C(c1ccc(C#N)cc1)N(c1cc(Cl)c(=O)n(C)c1)C2=O (centres unmarked) [Example 89, 4-(5-(5-chloro-1-methyl-6-oxo-1,6-dihydropyridin-3-yl)-1-methyl-4-oxo-1,4,5,6-tetrahydropyrrolo[3,4-b]pyrrol-6-yl)benzonitrile] | 357 | 230 | 210 | 10600 | 402 | 785 | 598 | 2015 | 1910 | >10000 |
| Cn1ccc2c1C(c1ccc(Cl)c(F)c1)N(c1cc(Cl)c(=O)n(C)c1)C2=O (centres unmarked) [Example 90, 5-(5-chloro-1-methyl-6-oxo-1,6-dihydropyridin-3-yl)-6-(4-chloro-3-fluorophenyl)-1-methyl-5,6-dihydropyrrolo[3,4-b]pyrrol-4(1H)-one] | 267 | 265 | 196 | 1450 | 222 | 407.5 | 218 | 446.5 | 618 | >10000 |
| CNC(=O)c1cn(C)c2c1C(=O)N(c1cc(C)c3nnn(C)c3n1)C2c1ccc(Cl)cc1 (centres unmarked) [Example 93, 6-(4-chlorophenyl)-5-(3,7-dimethyl-3H-[1,2,3]triazolo[4,5-b]pyridin-5-yl)-N,1-dimethyl-4-oxo-1,4,5,6-tetrahydropyrrolo[3,4-b]pyrrole-3-carboxamide] | 13 | 15 | 14 | > 37000 | 2.54 | 10.49 | 3.12 | 11.24 | 27.4 | >10000 |
| Cc1cc(N2C(=O)c3c(C(=O)N(C)C)cn(C)c3C2c2ccc(Cl)cc2)nc2c1nnn2C (centres unmarked) [Example 94, 6-(4-chlorophenyl)-5-(3,7-dimethyl-3H-[1,2,3]triazolo[4,5-b]pyridin-5-yl)-N,N,1-trimethyl-4-oxo-1,4,5,6-tetrahydropyrrolo[3,4-b]pyrrole-3-carboxamide] | 12 | 17 | 13 | > 37000 | 8.19 | 21.95 | 12.4 | 29.85 | 34.6 | >10000 |
| Cc1cc(N2C(=O)c3c(NC(=O)OC(C)(C)C)cn(C)c3C2c2ccc(Cl)cc2)nc2c1nnn2C (centres unmarked) [Example 95, Tert-butyl (6-(4-chlorophenyl)-5-(3,7-dimethyl-3H-[1,2,3]triazolo[4,5-b]pyridin-5-yl)-1-methyl-4-oxo-1,4,5,6-tetrahydropyrrolo[3,4-b]pyrrol-3-yl)carbamate] | 16 | 34 | 26 | > 37000 | 31.4 | 63.1 | 34.9 | 81.5 | 123 | >10000 |
| CC(=O)Nc1cn(C)c2c1C(=O)N(c1cc(C)c3nnn(C)c3n1)C2c1ccc(Cl)cc1 (centres unmarked) [Example 96, N-(6-(4-chlorophenyl)-5-(3,7-dimethyl-3H-[1,2,3]triazolo[4,5-b]pyridin-5-yl)-1-methyl-4-oxo-1,4,5,6-tetrahydropyrrolo[3,4-b]pyrrol-3-yl)acetamide] | 16 | 36 | 17 | > 37000 | 10.9 | 21.2 | 11.2 | 21.25 | 32.8 | >10000 |
| CCOC(=O)Nc1cn(C)c2c1C(=O)N(c1cc(C)c3nnn(C)c3n1)C2c1ccc(Cl)cc1 (centres unmarked) [Example 97, Ethyl (6-(4-chlorophenyl)-5-(3,7-dimethyl-3H-[1,2,3]triazolo[4,5-b]pyridin-5-yl)-1-methyl-4-oxo-1,4,5,6-tetrahydropyrrolo[3,4-b]pyrrol-3-yl)carbamate] | 35 | 15 | < 11 | > 37000 | 13.7 | 24.95 | 17.9 | 33.45 | 48.7 | >10000 |
| CNC(=O)c1cn(C)c2c1C(=O)N(c1cc(C)c3nnc(C)n3c1)C2c1ccc(Cl)cc1 (centres unmarked) [Example 99, 6-(4-chlorophenyl)-5-(3,8-dimethyl-[1,2,4]triazolo[4,3-a]pyridin-6-yl)-N,1-dimethyl-4-oxo-1,4,5,6-tetrahydropyrrolo[3,4-b]pyrrole-3-carboxamide] | < 11 | 16 | 13 | > 37000 | 13.6 | 38.3 | 27.8 | 96 | 138 | >10000 |
| Cc1cc(N2C(=O)c3c(C(=O)N(C)C)cn(C)c3C2c2ccc(Cl)cc2)cn2c(C)nnc12 (centres unmarked) [Example 100, 6-(4-chlorophenyl)-5-(3,8-dimethyl-[1,2,4]triazolo[4,3-a]pyridin-6-yl)-N,N,1-trimethyl-4-oxo-1,4,5,6-tetrahydropyrrolo[3,4-b]pyrrole-3-carboxamide] | 30 | 40 | 47 | > 37000 | 128 | 368.5 | 518 | 2135 | 2040 | >10000 |
| Cc1cc(N2C(=O)c3c(C(N)=O)cn(C)c3C2c2ccc(Cl)cc2)cn2c(C)nnc12 (centres unmarked) [Example 101, 6-(4-chlorophenyl)-5-(3,8-dimethyl-[1,2,4]triazolo[4,3-a]pyridin-6-yl)-1-methyl-4-oxo-1,4,5,6-tetrahydropyrrolo[3,4-b]pyrrole-3-carboxamide] | 41 | 54 | 42 | 30600 | 57.4 | 160.5 | 150 | 450.5 | 1300 | >10000 |
| Cc1cc(N2C(=O)c3c(NC(=O)OC(C)(C)C)cn(C)c3C2c2ccc(Cl)cc2)cn2c(C)nnc12 (centres unmarked) [Example 102, Tert-butyl (6-(4-chlorophenyl)-5-(3,8-dimethyl-[1,2,4]triazolo[4,3-a]pyridin-6-yl)-1-methyl-4-oxo-1,4,5,6-tetrahydropyrrolo[3,4-b]pyrrol-3-yl)carbamate] | 32 | 44 | 34 | 3200 | 37.3 | 90.4 | 53.3 | 118 | 185 | >10000 |
